Experimental data published in US20250326748A1, “COMPOUNDS AND METHODS FOR MODULATING SPLICING” (REMIX THERAPEUTICS INC., priority 2022, published 2025).
Structures can show the parent of a compound that is named as a salt.

tested on: Target C; test: HiBiT protein abundance assay, Target C (K562 HiBiT knock-in); type: cell-based, human; conditions: HiBiT knock-in cells, 24 hours
Procedure: Cells were maintained in IMDM with 10% FBS. Before the assay, cells were diluted with […] growth media (IMDM+1% FBS media) and were seeded in a 384-well plate at a density of 10000 cells/well (for each cell line listed in Table 6). Each compound was prepared as a 10-point 3-old serial dilution in DMSO with the top dose at a final concentration of 10 μM in the well. Unmodified K562 cells were added at the previously specified density with DMSO to serve as an assay baseline and positive control (PC) and DMSO only with the respective modified cell lines was added to the negative control (NC) columns. Final DMSO concentration was kept at or below 0.25%. Treated cell plates were placed in an incubator at 37° C. with 5% CO2 for 24 hours. After 24 hours, 25 μL of Complete HiBit Lytic reagent was added to each well at room temperature (e.g. one plate requiring 10 ml Lytic Buffer, 100 μL LgBiT Protein, 200 μL Lytic Substrate), shaken for 5 minutes at 600 RPM, then left to sit for 10 minutes for signal to stabilize before reading on a Spark Cyto plate reader (Tecan) with a 500 ms measurement time.
To determine compound effects on protein abundance of each target in Table 6, the percent response for each respective cell line was calculated at each compound concentration as follows:
For the normalized response at each concentration, a four-parameter logistical regression was fit to the data and the response was interpolated at the 50% value to determine a concentration for protein abundance at 50% (IC50) the untreated control.

Question: How did the IC50 turn out when `Cc1c(O)c(-c2cc(Cl)c3cc(N4CCNC5(CC5)C4)cnc3n2)cc2cn(C)nc12` [Compound 381] was run?
Answer: 1000 to 10000 nM

Question: `CN1CCC[C@H]2CN(c3cnc4nc(-c5cc6cn(C)nc6c(F)c5O)cc(Cl)c4c3)C[C@H]21` [Compound 304] was tested. Which IC50 did it give?
Answer: > 10000 nM

Question: `CN[C@H]1CCN(c2cnc3nc(-c4cc(C)c5nc(C)cn5n4)ccc3c2)C1` [Compound 116] was tested. Which IC50 did it give?
Answer: < 100 nM

Question: With `Cc1c(O)c(-c2ccc3cc(N4CCC(NCC5CC5)C4)cnc3n2)cc2cn(C)nc12` (centres unmarked) [Compound 105, 5-(6-{3-[(cyclopropylmethyl)amino]pyrrolidin-1-yl}-1,8-naphthyridin-2-yl)-2,7-dimethylindazol-6-ol] as the compound, how does the IC50 read?
Answer: < 100 nM

Question: For `Cn1cc2cc(-c3cnc4nc(N5CCC(NC(C)(C)C)C5)ccc4c3)c(O)cc2n1` (centres unmarked) [Compound 133, 5-{7-[3-(tert-butylamino)pyrrolidin-1-yl]-1,8-naphthyridin-3-yl}-2-methylindazol-6-ol], which IC50 is on record?
Answer: 1000 to 10000 nM

Question: With `CCN[C@@H]1CCN(c2cnc3nc(-c4cc5cn(C)nc5cc4O)cc(Cl)c3c2)C1` [Compound 317] as the compound, how does the IC50 read?
Answer: < 100 nM

Question: How did the IC50 turn out when `C[C@@H]1CN(c2cnc3nc(-c4cc5cn(C)nc5cc4O)ccc3c2)C[C@H](C)N1` [Compound 343] was run?
Answer: 1000 to 10000 nM

Question: How did the IC50 turn out when `CN(c1cnc2nc(-c3cc4cn(C)nc4c(F)c3O)cc(Cl)c2c1)[C@@H]1CCNC1` [Compound 276] was run?
Answer: 100 to 1000 nM

Question: For `Cc1cn2nc(-c3cc(Cl)c4cc(N5C[C@@H](C)N[C@@H](C)C5)cnc4n3)cc(C)c2n1` [Compound 335, 4-chloro-2-{2,8-dimethylimidazo[1,2-b]478pyridazine-6-yl}-6-[(3R,5S)-3,5-dimethylpiperazin-1-yl]-1,8-naphthyridine], which IC50 is on record?
Answer: 1000 to 10000 nM

Question: With `C[C@H]1CN(c2cnc3nc(-c4cc(F)c5nn(C)cc5c4)cc(Cl)c3c2)C[C@@H](C2CC2)N1` [Compound 288] as the compound, how does the IC50 read?
Answer: 1000 to 10000 nM

Question: With `Cc1cn2cc(-c3cc(Cl)c4cc(N5CCNCC5)cnc4n3)cc(F)c2n1` [Compound 153, 4-chloro-2-{8-fluoro-2-methylimidazo[1,2-a]pyridin-6-yl}-6-(piperazin-1-yl)-1,8-naphthyridine] as the compound, how does the IC50 read?
Answer: 1000 to 10000 nM

Question: `CN(C)C1CCN(c2cnc3nc(-c4cc5cn(C)nc5cc4O)ccc3c2)CC1` [Compound 316] was tested. Which IC50 did it give?
Answer: 1000 to 10000 nM

Question: Which IC50 does the source give for `Cc1cn2nc(-c3cc(Cl)c4cc(N5CCC(N(C)C)CC5)cnc4n3)cc(C)c2n1` [Compound 348] here?
Answer: 100 to 1000 nM

Question: Which IC50 does the source give for `CN(c1cnc2nc(-c3cc4cn(C)nc4c(F)c3O)ccc2c1)C1CCNCC1` [Compound 284] here?
Answer: 1000 to 10000 nM

Question: Which IC50 does the source give for `CNC1CCN(c2cnc3nc(-c4cc5cn(C)nc5c(C)c4O)cc(Cl)c3c2)C1` (centres unmarked) [Compound 142, 5-{4-chloro-6-[3-(methylamino)351pyrrolidine-1-yl]-1,8-naphthyridin-2-yl}-2,7-dimethylindazol-6-ol] here?
Answer: 100 to 1000 nM

Question: For `Cc1c(O)c(-c2cc(Cl)c3cc(N(C)[C@H]4CCNC4)cnc3n2)cc2cn(C)nc12` [Compound 294], which IC50 is on record?
Answer: 1000 to 10000 nM

Question: With `CCNC1CCN(c2cnc3nc(-c4cc5cn(C)nc5c(C)c4O)ccc3c2)C1` (centres unmarked) [Compound 122, 5-{6-[3-(ethylamino)pyrrolidin-1-yl]-1,8-naphthyridin-2-yl}-2,7-dimethylindazol-6-ol] as the compound, how does the IC50 read?
Answer: < 100 nM

Question: How did the IC50 turn out when `CN[C@H]1CCN(c2cnc3nc(-c4cc5cn(C)nc5c(C)c4O)ncc3c2)C1` [Compound 120] was run?
Answer: 1000 to 10000 nM

Question: For `Cc1c(O)c(-c2ccc3cc(N4CCC(NCC5CC5)C4)cnc3n2)cc2cn(C)nc12` (stereo in doubt) [Compound 119, 5-{6-[(3R)-3-[(cyclopropylmethyl)amino]pyrrolidin-1-yl]-1,8-naphthyridin-2-yl}-2,7-dimethylindazol-6-ol], which IC50 is on record?
Answer: 100 to 1000 nM

Question: Which IC50 does the source give for `Cc1c(O)c(-c2cc(Cl)c3cc(NC4CCNC4)cnc3n2)cc2cn(C)nc12` (centres unmarked) [Compound 146, 5-[4-chloro-6-(359pyrrolidine-3-ylamino)-1,8-naphthyridin-2-yl]-2,7-dimethylindazol-6-ol] here?
Answer: 100 to 1000 nM

Question: For `CCN[C@@H]1CCN(c2cnc3nc(-c4cc5cn(C)nc5cc4O)ccc3c2)C1` [Compound 310, 5-{6-[(3R)-3-(ethylamino)468pyrrolidine-1-yl]-1,8-naphthyridin-2-yl}-2-methylindazol-6-ol hydrochloride], which IC50 is on record?
Answer: 100 to 1000 nM

Question: For `CN[C@@H]1CCN(c2cnc3nc(-c4cc5cn(C)nc5c(C)c4O)ccc3c2)C1` [Compound 112], which IC50 is on record?
Answer: 100 to 1000 nM

Question: How did the IC50 turn out when `CCNC1CCN(c2cnc3nc(-c4cc5cn(C)nc5c(F)c4O)ccc3c2)C1` (centres unmarked) [Compound 106, 5-{6-[3-(ethylamino)pyrrolidin-1-yl]-1,8-naphthyridin-2-yl}-7-fluoro-2-methylindazol-6-ol] was run?
Answer: < 100 nM

Question: With `CN[C@H]1CCN(c2cnc3nc(-c4cc(C)c5nc(C)cn5n4)cc(Cl)c3c2)C1` [Compound 340] as the compound, how does the IC50 read?
Answer: 100 to 1000 nM

Question: `Cc1c(O)c(-c2ccc3cc(N4CCNCC4)cnc3n2)cc2cn(C)nc12` [Compound 137, 2,7-dimethyl-5-[6-(piperazin-1-yl)-1,8-naphthyridin-2-yl]indazol-6-ol] was tested. Which IC50 did it give?
Answer: 100 to 1000 nM

Question: `Cc1cn2cc(-c3ccc4cc(N5C[C@@H](C)N[C@@H](C)C5)cnc4n3)cc(F)c2n1` [Compound 350] was tested. Which IC50 did it give?
Answer: 1000 to 10000 nM

Question: How did the IC50 turn out when `CN[C@H]1CCN(c2cnc3nc(-c4cc5cn(C)nc5c(C)c4O)cc(Cl)c3c2)C1.Cl` [Compound 287] was run?
Answer: 100 to 1000 nM

Question: `CN(c1cnc2nc(-c3cc4cn(C)nc4c(F)c3O)cc(Cl)c2c1)[C@H]1CCNC1` [Compound 275] was tested. Which IC50 did it give?
Answer: 1000 to 10000 nM

Question: For `CCN[C@H]1CCN(c2cnc3nc(-c4cc5cn(C)nc5cc4O)ccc3c2)C1` [Compound 311, 5-{6-[(3S)-3-(ethylamino)pyrrolidin-1-yl]-1,8-naphthyridin-2-yl}-2-methylindazol-6-ol hydrochloride], which IC50 is on record?
Answer: 100 to 1000 nM

Question: For `Cn1cc2cc(-c3ccc4cc(N5CC[C@@H](NCC6CC6)C5)cnc4n3)c(O)c(F)c2n1` [Compound 135, 5-{6-[(3R)-3-[(cyclopropylmethyl)amino]330pyrrolidine-1-yl]-1,8-naphthyridin-2-yl}-7-fluoro-2-methylindazol-6-ol], which IC50 is on record?
Answer: < 100 nM

Question: How did the IC50 turn out when `Cc1cn2nc(-c3cc(Cl)c4cc(N5C[C@H](C)N[C@@H](C)C5)cnc4n3)cc(C)c2n1` [Compound 336] was run?
Answer: 100 to 1000 nM

Question: With `Cc1cn2nc(-c3cnc4nc(C5CCNCC5)ccc4c3)cc(C)c2n1` [Compound 115, 6-(2,8-dimethylimidazo[1,2-b]pyridazin-6-yl)-2-(piperidin-4-yl)-1,8-naphthyridine] as the compound, how does the IC50 read?
Answer: 1000 to 10000 nM

Question: How did the IC50 turn out when `C[C@H]1CN(c2cnc3nc(-c4cc(F)c5nn(C)cc5c4)cc(Cl)c3c2)CCN1` [Compound 296] was run?
Answer: 100 to 1000 nM

Question: Which IC50 does the source give for `C[C@@H]1CN(c2cnc3nc(-c4cc5cn(C)nc5c(F)c4O)cc(Cl)c3c2)C[C@H](C)N1` [Compound 279] here?
Answer: 100 to 1000 nM

Question: How did the IC50 turn out when `Cn1cc2cc(-c3ccc4cc(N5CC[C@@H](NCC6CC6)C5)cnc4n3)c(O)cc2n1` [Compound 313] was run?
Answer: 100 to 1000 nM

Question: `Cc1c(O)c(-c2cc(C3CC3)c3cc(N4CCNCC4)cnc3n2)cc2cn(C)nc12` [Compound 144, 5-(4-cyclopropyl-6-(piperazin-1-yl)-1,8-naphthyridin-2-yl)-2,7-dimethyl-2H-indazol-6-ol bis(2,2,2-trifluoroacetate)] was tested. Which IC50 did it give?
Answer: 1000 to 10000 nM

Question: With `Cc1c(O)c(-c2ccc3c(C(F)(F)F)c(N4CCNCC4)cnc3n2)cc2cn(C)nc12` [Compound 302, 2,7-dimethyl-5-[6-(piperazin-1-yl)-5-(trifluoromethyl)-1,8-naphthyridin-2-yl]indazol-6-ol] as the compound, how does the IC50 read?
Answer: 1000 to 10000 nM

Question: Which IC50 does the source give for `C[C@@H]1CN(c2cnc3nc(-c4cc(C#N)c5nn(C)cc5c4)cc(Cl)c3c2)C[C@H](C)N1` [Compound 325, 5-(4-chloro-6-((3R,5S)-3,5-dimethylpiperazin-1-yl)-1,8-naphthyridin-2-yl)-2-methyl-2H-indazole-7-carbonitrile 2,2,2-trifluoroacetate] here?
Answer: > 10000 nM

Question: How did the IC50 turn out when `CN[C@@H]1CN(c2cnc3nc(-c4cc5cn(C)nc5c(C)c4O)ccc3c2)C[C@H]1C` [Compound 126, 2,7-dimethyl-5-{6-[(3R,4S)-3-methyl-4-(methylamino)382pyrrolidine-1-yl]-1,8-naphthyridin-2-yl}indazol-6-ol] was run?
Answer: 1000 to 10000 nM

Question: With `Cc1cn2nc(-c3ccc4c(Cl)c(N5C[C@H](C)N[C@@H](C)C5)cnc4n3)cc(C)c2n1` [Compound 393, 5-chloro-2-{2,8-dimethylimidazo[1,2-b]pyridazin-6-yl}-6-[(3S,5S)-3,5-dimethylpiperazin-1-yl]-1,8-naphthyridine] as the compound, how does the IC50 read?
Answer: 100 to 1000 nM

Question: How did the IC50 turn out when `Cc1cn2cc(-c3cc(Cl)c4cc(N5C[C@@H](C)N[C@@H](C)C5)cnc4n3)cc(F)c2n1` [Compound 297] was run?
Answer: 1000 to 10000 nM

Question: For `CN[C@H]1CN(c2cnc3nc(-c4cc5cn(C)nc5c(C)c4O)ccc3c2)C[C@@H]1F` (single isomer, unassigned) [Compound 131], which IC50 is on record?
Answer: 1000 to 10000 nM

Question: Which IC50 does the source give for `CN[C@H]1CN(c2cnc3nc(-c4cc5cn(C)nc5c(C)c4O)ccc3c2)C[C@H]1C` [Compound 125, 2,7-dimethyl-5-{6-[(3R,4R)-3-methyl-4-(methylamino)379pyrrolidine-1-yl]-1,8-naphthyridin-2-yl}indazol-6-ol] here?
Answer: 100 to 1000 nM

Question: `Cc1c(O)c(-c2cc(Cl)c3cc(N4C[C@@H](C)N[C@@H](C)C4)cnc3n2)cc2cn(C)nc12` [Compound 149] was tested. Which IC50 did it give?
Answer: 100 to 1000 nM

Question: `CCN[C@@H]1CCN(c2cnc3nc(-c4cc5cn(C)nc5c(C)c4O)ccc3c2)C1` [Compound 124] was tested. Which IC50 did it give?
Answer: < 100 nM

Question: For `Cc1cn2nc(-c3cc(Cl)c4cc(N5CCC(N6CCC6)CC5)cnc4n3)cc(C)c2n1` [Compound 349], which IC50 is on record?
Answer: 100 to 1000 nM

Question: Which IC50 does the source give for `CCN[C@H]1CCN(c2cnc3nc(-c4cc5cn(C)nc5cc4O)cc(Cl)c3c2)C1` [Compound 318] here?
Answer: 100 to 1000 nM
